# Laboratory results taken from patent US10059708B2, “Therapeutic targeting of the interleukin 1 receptor-associated kinase 4 (IRAK4) in leukemias characterized by rearrangements in the mixed lineage leukemia gene (MLL-r)” (Northwestern University, priority 2016, dated 2018).
# Experiments:
# [1] = tested on: REH cells; assay: REH cell proliferation (trypan blue, Vi-CELL XR); type: cell-based, human; details: 500 nM IRAK4 inhibitor
# Method: FIG. 4. […] Viable cells were seeded at 0.2 million/mL, and they were monitored by trypan blue exclusion staining and counted using a Vi-CELL XR cell counter. Data are represented as mean±SD (n=3). […] Data are represented as mean±SD (n=3). (C) Venn diagram of deregulated genes in SEM cells by IRAK1/4 and IRAK4 inhibitors. […] (D) Venn diagram of deregulated genes in SEM and REH cells by both inhibitors. Little overlap was observed between REH and SEM cells. […] Each cluster is represented by different colors and a circle node represents each enriched term. (G) UBE2O depletion and IRAK inhibition affect a common subset of genes in SEM cells. […] Heatmaps represent Z score-normalized values. See also FIG. 11.
# Stabilization of MLL through IRAK Inhibition and UBE2O Depletion Regulates a Specific Gene Regulatory Network in MLL Leukemia. To measure the consequence of stabilizing MLL in MLL leukemia cells, we determined the effects of IRAK inhibition on cell proliferation of REH (MLL-germline leukemia) and SEM (MLL-AFF1) cells. Both of these cell lines are derived from precursor B cell ALL patient blast cells, and, therefore, they have been studied when comparing non-MLL (REH) and MLL-dependent (SEM) leukemia gene expression (Guenther et al., 2008).
# [2] = tested on: MLL-rearranged AML and ALL leukemia cells; assay: Dose-dependent growth study with patient-derived leukemia cell lines; type: cell-based, human; details: different doses, 3 days
# Method: (§1) FIG. 5. Determinants of the Increased Sensitivity of MLL Leukemia Cells to IRAK Inhibition (A) IRAK4 inhibitor-specific inhibition of MLL leukemia cell proliferation. Multiple MLL leukemia and non-MLL leukemia or lymphoma cell lines were cultured with different doses of IRAK4 inhibitor for 3 days. Data are represented as mean±SD (n=3). (B) Cell growth of MLL-AF9-positive AML MM6 cells is inhibited by IRAK inhibition. Data are represented as mean±SD (n=3). […] The p value was determined with the hypergeometric test. […] (E and F) Depletion of LGALS1 (E) and LMO2 (F) results in reduced growth of MM6 cells. MM6 cells were transduced with shGFP control (GFPi) or two different lentiviral shRNA constructs. After selection with puromycin for 4 days, viable cells were seeded at 0.2 million/mL and cultured for 3 more days before cell viability counting. Data represent the mean±SD (n=3; **p<0.005, one-way ANOVA). See also FIG. 12.
# (§2) Determinants of the Increased Sensitivity of MLL Leukemia Cells to IRAK Inhibition. To further determine the effectiveness of IRAK inhibition for MLL leukemia cell growth, we performed dose-dependent studies with multiple patient-derived leukemia cell lines, including MLL leukemia and non-MLL leukemia or lymphoma cells.
# [3] = tested on: MLL-AF6-positive ML2 leukemia cells; assay: Dose-dependent growth study, ML2 cells; type: cell-based, human; details: different doses, 3 days
# Method: as §1, §2
# [4] = tested on: MLL-AF9 leukemia; assay: Murine MLL-AF9 leukemia transplantation model; type: in vivo, C57BL/6 mice; details: treatment from day 10 after transplantation; IRAK1/4 inhibitor 8 mg/kg, IRAK4 inhibitor 75 mg/kg i.p. every other day; vehicle mice all dead by 31 days
# Excerpt: After transformation of MLL-AF9, c-Kit+ HSPCs were transplanted into lethally irradiated C57BL/6 mice with 1 3 106 transformed cells and 2 3 105 support cells. Leukemia cells from primary AML mice were isolated and transplanted into sublethally irradiated C57BL/6 mice. Drug treatments were started at day 10 or 19 after transplantation. (B) Kaplan-Meier survival curves of secondary transplanted C57BL/6 mice after vehicle and IRAK1/4 or IRAK4 inhibitor treatment at day 19 (blast phase). Vehicle or IRAK inhibitors were administered every other day by intraperitoneal injection for a total of five treatments. Leukemia was confirmed at the endpoint for each transplant mouse. […] The p values were calculated using the log rank test. […] The p values were calculated using the log rank test. […]
# We further assessed the effects of the IRAK inhibitors in vivo using the murine MLL-AF9 leukemia transplantation model (FIG. 7A) (Volk et al., 2014). […]
# Murine MLL-AF9 Leukemia Model. […] The mice were monitored for signs of acute leukemia for 2-3 months and euthanized when leukemia was evident (weight loss below 16.75 g, reduced mobility, malaise, palpable spleen, and hunched back). […]
# Animal Treatment. […] Mice were monitored for leukemia development and leukemia was verified after the mice were sacrificed upon signs of illness (weight loss below 16.75 g, partial paralysis, malaise, palpable spleen, and hunched back).
structure (smiles),measurement,setting,value
COc1cc2c(cc1OCCCN1CCN(C)CC1)ncc1c3ccc(C#N)cc3[nH]c21 [IRAK4 inhibitor],REH cell proliferation,[1],no detectable effect
same,cell growth of MLL-rearranged versus non-MLL leukemia or lymphoma cells,[2],preferentially impeded cell growth of MLL-rearranged AML and ALL leukemia cells
same,sensitivity of ML2 cells (wild-type MLL allele deleted),[3],not sensitive
same,mice that still did not develop MLL-AF9 leukemia as of day 55,[4],four of nine
